Key:
MAGL [1] = target: T1, MAGL (Mus musculus, UniProt O35678); test: In vitro competitive activity-based protein profiling (mouse), MAGL gel band; assay type: biochemical; details: for IC50: mouse; for inhibition at 1 µM: read-out: MAGL % inh. 1 μM
T1 construct: Proteomes (mouse brain membrane fraction or cell lysates); from tissue; host or cells: mouse brain membrane fraction (or cell lysates)
T1 sequence (O35678 1-303): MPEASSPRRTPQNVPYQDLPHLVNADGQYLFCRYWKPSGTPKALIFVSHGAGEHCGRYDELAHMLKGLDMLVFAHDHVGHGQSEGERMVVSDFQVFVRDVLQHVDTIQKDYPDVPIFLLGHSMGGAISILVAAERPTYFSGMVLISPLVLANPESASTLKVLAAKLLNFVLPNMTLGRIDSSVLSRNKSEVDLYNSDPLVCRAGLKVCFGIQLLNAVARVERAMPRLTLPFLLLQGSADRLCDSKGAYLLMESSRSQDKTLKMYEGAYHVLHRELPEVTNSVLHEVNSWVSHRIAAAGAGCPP
Summary of the method: (§1)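 Mouse brain membrane proteome or cell lysate (1.0 mg/mL protein) preincubated 30 min at 37 °C with varying inhibitor concentrations, then labelled 30 min at 37 °C with FP-Rh or HT-01 probe (50 μM stock). After SDS-PAGE, activity taken from fluorescent intensity of the MAGL and FAAH gel bands.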

MAGL [2] = target: T1, MAGL; test: Mouse brain proteomes from inhibitor treated mice (oral gavage, sacrificed 4 h after administration); assay type: in vivo; details: read-out: MAGL % inh. 5 mg/kg
Summary of the method: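 Brains were collected 4 h after oral gavage dosing of wild-type C57Bl/6J mice, vehicle polyethylene glycol. Proteomes from these brains were then analyzed for MAGL and other serine hydrolase activity.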

FAAH = target: T2, FAAH (Mus musculus, UniProt O08914); test: In vitro competitive activity-based protein profiling (mouse), FAAH gel band; assay type: biochemical; details: for IC50: mouse; for inhibition at 1 µM: read-out: FAAH % inh. 1 μM
T2 construct: Proteomes (mouse brain membrane fraction or cell lysates); from tissue; host or cells: mouse brain membrane fraction (or cell lysates)
T2 sequence (O08914 1-579): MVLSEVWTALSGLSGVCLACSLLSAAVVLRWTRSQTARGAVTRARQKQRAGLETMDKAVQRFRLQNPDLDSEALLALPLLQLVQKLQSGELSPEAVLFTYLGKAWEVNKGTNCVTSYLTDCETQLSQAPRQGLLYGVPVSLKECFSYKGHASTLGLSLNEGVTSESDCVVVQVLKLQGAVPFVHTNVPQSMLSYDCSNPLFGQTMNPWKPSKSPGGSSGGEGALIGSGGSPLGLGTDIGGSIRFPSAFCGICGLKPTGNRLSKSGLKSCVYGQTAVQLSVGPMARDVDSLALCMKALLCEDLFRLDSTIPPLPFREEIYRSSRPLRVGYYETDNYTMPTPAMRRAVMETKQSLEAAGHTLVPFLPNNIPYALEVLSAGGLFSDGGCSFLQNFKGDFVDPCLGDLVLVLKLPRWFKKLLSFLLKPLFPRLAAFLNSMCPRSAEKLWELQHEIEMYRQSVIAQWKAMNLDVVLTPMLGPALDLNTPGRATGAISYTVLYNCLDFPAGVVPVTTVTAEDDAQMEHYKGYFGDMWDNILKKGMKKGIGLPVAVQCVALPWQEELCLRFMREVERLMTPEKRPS
Summary of the method: as §1

Compound | IC50 (MAGL [1]) [nM] | inhibition at 1 µM (MAGL [1]) [%] | inhibition at 5 mg/kg (MAGL [2]) [%] | IC50 (FAAH) [nM] | inhibition at 1 µM (FAAH) [%]
Cc1c(CN2CCCC23CCN(C(=O)n2ccc(NS(C)(=O)=O)n2)CC3)cccc1N1CCCCC1 [Example 142, N-(1-(1-(2-methyl-3-(piperidin-1-yl)benzyl)-1,8-diazaspiro[4.5]decane-8-carbonyl)-1H-pyrazol-3-yl) methanesulfonamide] | ≤ 100 | ≥ 75 | 0 to 25 | 1000 to 10000 | 0 to 25
CC(=O)Nc1ccn(C(=O)N2CCN(Cc3ccc(C(F)(F)F)cc3N3CCC4(CC3)CCN(S(C)(=O)=O)C4)CC2)n1 [Example 43, N-(1-(4-(2-(2-(methylsulfonyl)-2,8-diazaspiro[4.5]decan-8-yl)-4-(trifluoromethyl)benzyl)piperazine-1-carbonyl)-1H-pyrazol-3-yl)acetamide] | ≤ 100 | ≥ 75 | 0 to 25 | 1000 to 10000 | 0 to 25
CC(=O)Nc1ccn(C(=O)N2CCC3(CCCN3Cc3cc(OC4CCS(=O)(=O)CC4)cc(C(F)(F)F)c3)CC2)n1 [Example 88, N-(1-(1-(3-((1,1-dioxidotetrahydro-2H-thiopyran-4-yl)oxy)-5-(trifluoromethyl)benzyl)-1,8-diazaspiro[4.5]decane-8-carbonyl)-1H-pyrazol-3-yl)acetamide] | ≤ 100 | ≥ 75 | 0 to 25 | 1000 to 10000 | 0 to 25
CS(=O)(=O)Nc1ccn(C(=O)N2CCN(Cc3cccc(Cl)c3N3CCC4(CCOCC4)C3)CC2)n1 [Example 290, N-(1-(4-(3-chloro-2-(8-oxa-2-azaspiro[4.5]decan-2-yl)benzyl)piperazine-1-carbonyl)-1H-pyrazol-3-yl) methanesulfonamide] | ≤ 100 | ≥ 75 | 50 to 75 | 1000 to 10000 | 0 to 25
CC(=O)Nc1ccn(C(=O)N2CCN(Cc3cc(OCC(=O)N4CCCC4)cc(C(F)(F)F)c3)CC2)n1 [Example 80, N-(1-(4-(3-(2-oxo-2-(pyrrolidin-1-yl)ethoxy)-5-(trifluoromethyl)benzyl)piperazine-1-carbonyl)-1H-pyrazol-3-yl)acetamide] | ≤ 100 | ≥ 75 | 0 to 25 | 1000 to 10000 | 0 to 25
CC(=O)Nc1ccn(C(=O)N2CCC3(CCCN3Cc3ccc(Cl)cc3N3CCCCC3)CC2)n1 [Example 33, N-(1-(1-(4-chloro-2-(piperidin-1-yl)benzyl)-1,8-diazaspiro[4.5]decane-8-carbonyl)-1H-pyrazol-3-yl)acetamide] | ≤ 100 | ≥ 75 | 25 to 50 | 1000 to 10000 | 0 to 25
CC(=O)Nc1ccn(C(=O)N2CCN(Cc3ccc(C(F)(F)F)cc3N3CCN(S(C)(=O)=O)CC3)CC2)n1 [Example 41, N-(1-(4-(2-(4-(methylsulfonyl)piperazin-1-yl)-4-(trifluoromethyl)benzyl)piperazine-1-carbonyl)-1H-pyrazol-3-yl)acetamide] | ≤ 100 | ≥ 75 | 0 to 25 | 1000 to 10000 | 0 to 25
CC(=O)Nc1ccn(C(=O)N2CCC3(CCCN3Cc3cc(N4CC5CN(C(C)=O)CC5C4)cc(C(F)(F)F)c3)CC2)n1 (stereo not drawn) [Example 69, N-(1-(1-(3-(5-acetylhexahydropyrrolo[3,4-c]pyrrol-2(1H)-yl)-5-(trifluoromethyl)benzyl)-1,8-diazaspiro[4.5]decane-8-carbonyl)-1H-pyrazol-3-yl)acetamide] | 100 to 1000 | ≥ 75 | 0 to 25 | 1000 to 10000 | 0 to 25
CC(=O)Nc1ccn(C(=O)N2CCN(Cc3ccc(Cl)cc3-c3nnn[nH]3)CC2)n1 [Example 262, N-(1-(4-(4-chloro-2-(1H-tetrazol-5-yl)benzyl)piperazine-1-carbonyl)-1H-pyrazol-3-yl)acetamide] | ≤ 100 | ≥ 75 | 0 to 25 | 1000 to 10000 | 0 to 25
CC(=O)Nc1ccn(C(=O)N2CCC3(CCCN3Cc3ccc(Cl)cc3N3CCC4(C3)CN(S(C)(=O)=O)C4)CC2)n1 [Example 38, N-(1-(1-(4-chloro-2-(2-(methylsulfonyl)-2,6-diazaspiro[3.4]octan-6-yl)benzyl)-1,8-diazaspiro[4.5]decane-8-carbonyl)-1H-pyrazol-3-yl)acetamide] | ≤ 100 | ≥ 75 | 0 to 25 | 1000 to 10000 | 0 to 25
CC(=O)Nc1ccn(C(=O)N2CCN(Cc3ccc(Cl)cc3N3CCN(C(C)=O)CC3)CC2)n1 [Example 53, N-(1-(4-(2-(4-acetylpiperazin-1-yl)-4-chlorobenzyl)piperazine-1-carbonyl)-1H-pyrazol-3-yl)acetamide] | ≤ 100 | ≥ 75 | 0 to 25 | 1000 to 10000 | 0 to 25
CC(=O)Nc1ccn(C(=O)N2CCC3(CCCN3Cc3ccc(C(F)(F)F)c(C)c3)CC2)n1 [Example 93, N-(1-(1-(3-methyl-4-(trifluoromethyl)benzyl)-1,8-diazaspiro[4.5]decane-8-carbonyl)-1H-pyrazol-3-yl)acetamide] | ≤ 100 | ≥ 75 | 50 to 75 | 1000 to 10000 | 0 to 25
CC(=O)Nc1ccn(C(=O)N2CCN(Cc3ccc(Cl)cc3N3CCC4(CCOCC4)C3)CC2)n1 [Example 56, N-(1-(4-(4-chloro-2-(8-oxa-2-azaspiro[4.5]decan-2-yl)benzyl)piperazine-1-carbonyl)-1H-pyrazol-3-yl)acetamide] | ≤ 100 | ≥ 75 | 25 to 50 | 1000 to 10000 | 0 to 25
CC(=O)Nc1ccn(C(=O)N2CCC3(CCCN3Cc3ccc(C(F)(F)F)cc3Oc3cncnc3)CC2)n1 [Example 83, N-(1-(1-(2-(pyrimidin-5-yloxy)-4-(trifluoromethyl)benzyl)-1,8-diazaspiro[4.5]decane-8-carbonyl)-1H-pyrazol-3-yl)acetamide] | ≤ 100 | ≥ 75 | 0 to 25 | 1000 to 10000 | 0 to 25
CS(=O)(=O)Nc1ccn(C(=O)N2CCN(Cc3cccc(Cl)c3N3CC[C@H](CF)C3)CC2)n1 [Example 121, (S)-N-(1-(4-(3-chloro-2-(3-(fluoromethyl)pyrrolidin-1-yl)benzyl)piperazine-1-carbonyl)-1H-pyrazol-3-yl) methanesulfonamide] | ≤ 100 | ≥ 75 | 50 to 75 | 1000 to 10000 | 0 to 25
CC(=O)Nc1ccn(C(=O)N2CCC3(CCCN3Cc3cc(Oc4cncnc4)cc(C(F)(F)F)c3)CC2)n1 [Example 84, N-(1-(1-(3-(pyrimidin-5-yloxy)-5-(trifluoromethyl)benzyl)-1,8-diazaspiro[4.5]decane-8-carbonyl)-1H-pyrazol-3-yl)acetamide] | ≤ 100 | ≥ 75 | 0 to 25 | 1000 to 10000 | 0 to 25
CC(=O)Nc1ccn(C(=O)N2CCC3(CCCN3Cc3ccc(Cl)cc3N3CCC(F)CC3)CC2)n1 [Example 18, N-(1-(1-(4-chloro-2-(4-fluoropiperidin-1-yl)benzyl)-1,8-diazaspiro[4.5]decane-8-carbonyl)-1H-pyrazol-3-yl)acetamide] | ≤ 100 | ≥ 75 | 0 to 25 | 1000 to 10000 | 0 to 25
CC(=O)Nc1ccn(C(=O)N2CCN(Cc3ccc(C(F)(F)F)cc3OCC(=O)N3CCCC3)CC2)n1 [Example 79, N-(1-(4-(2-(2-oxo-2-(pyrrolidin-1-yl)ethoxy)-4-(trifluoromethyl)benzyl)piperazine-1-carbonyl)-1H-pyrazol-3-yl)acetamide] | ≤ 100 | ≥ 75 | 0 to 25 | 1000 to 10000 | 0 to 25

Source: patent US10519134B2, “Pyrazole compounds and methods of making and using same” (Lundbeck La Jolla Research Center, Inc., priority 2015, dated 2019)
